The test system of assay [1] is HSV-1 strain F or KOS. The assay can be described thus: Inhibition of herpes simplex virus (HSV-1) replication in cell culture (BHK-21 cells, glycoprotein C ELISA). The format is cell-based. As to the method:
B) Inhibition of Herpes Simplex Virus (HSV-1) Replication in Cell Culture
BHK-21 cells clone 13 (ATCC CCL10) were incubated for two days in 850 cm^2 roller bottles (2×10^7 cells/bottle) with A-MEM medium (Gibco Canada Inc., Burlington, Ontario, Canada) supplemented with 8% (v/v) fetal bovine serum (FBS, Gibco Canada, Inc.). The cells were trypsinized and then 3,000 cells in 100 μL of fresh medium were transferred into each well of a 96-well microtiter plate. The cells were incubated at […] for a period of 3 days to reach a density of 50,000 cells per well. The cells were washed twice with 100 μL of α-MEM supplemented with 2% heat inactivated FBS and incubated for 1-2 hours in 100 μL of the same medium.
Thereafter, the cells were infected with HSV-1 strain F or KOS (multiplicity of infection =0.05 PFU/cell) in 50 μL of α-MEM supplemented with 2% heat inactivated FBS. Following one hour of virus absorption at 37°, the medium was removed and the cells were washed with α-MEM supplemented with 2% heat inactivated FBS (2×100 μL). The cells were incubated with or without 100 μL of the appropriate concentration of test reagent in α-MEM medium supplemented with 2% heat inactivated FBS. After 24 hours of incubation at 37°, the extent of viral replication was determined by an ELISA assay; for instance, the following assay that detects the late glycoprotein C of HSV-1.
Cells were fixed in the microtiter plate with 100 μL of 0.063% glutaraldehyde in phosphate buffered saline for 30 min at room temperature. The microtiter plate was then washed once with casein blocking solution and blocked with 200 μL of the same solution for one hour at room temperature. Thereafter, 100 μL of mAb C11 recognizing the glycoprotein C of HSV-1 (see E. Trybala et al., Journal of General Virology, 1994, 75, 743) was added to each well for two hours at room temperature. The plate was washed three times with phosphate buffered saline containing 0.05% polyoxyethylene (20) sorbitan monooleate. The cells were incubated with 100 μL of sheep anti-mouse IgG horseradish peroxidase for one hour at room temperature in the dark.
The plate was washed three times with 200 μL of the above-noted phosphate buffer saline preparation, and then once with 0.1 M sodium citrate (pH 4.5). Thereafter, 100 μL of orthophenylenediamine dihydrochloride (OPD, Gibco, Canada Inc.) was added to each well. The plate was agitated on a microplate shaker for 30 min in the dark. Color development was monitored at 450 nm using a microplate spectrophotometer.
SAS was used to calculate % inhibition of viral replication and to generate EC50 values.

Assay [2] deals with T1, HSV-1 helicase-primase (Human herpesvirus 1, UniProt P10189+P10236).
T1 construct: made in house; host or cells: Sf21 insect cells triply infected with recombinant baculoviruses (UL5, UL8, UL52)
The assay can be described thus: HSV-1 DNA-dependent ATPase assay (inhibition of HSV-1 helicase-primase). In kind it is biochemical. The text has this:
A) HSV-1 DNA-Dependent ATP Assay (an in Vitro Assay Based on the Inhibition of HSV-1 Helicase-primase).
HSV-1 helicase-primase holoenzyme was produced in triply infected Sf21 cells using recombinant baculoviruses expressing the UL5, UL8 and UL52 helicase-primase subunits, as described by S. Dracheva et al., J. Biol. Chem. 1995, 270, 14148. The crude enzyme was purified by ammonium sulfate precipitation, Source 15Q® chromatography and Sephacryl® S-300 HR gel filtration (both purification systems can be obtained from Pharmacia Biotech Inc., Montreal, Quebec, Canada), see S. Dracheva et al., supra.
The DNA-dependent ATPase assay, described by J. J. Crute et al., Nucleic Acids Res. 1988, 16, 6585, was modified and used to evaluate the capability of the compounds of Group 1-formula 1 to inhibit HSV-1 helicase-primase activity. The reaction mixtures (80 μL each) contained 40 mM 4-(2-hydroxyethyl)-1-piperazineethanesulfonic acid (HEPES, pH 7.5), 10% (v/v) glycerol, 5.5 mM MgCl2, 1 mM DL-dithiothreitol (DTT), 50 μg/mL acetylated bovine serum albumin, 3.3% (v/v) DMSO, 4 mM ATP, 25 μM single-stranded M13 DNA hybridized to double-tailed 68-mer oligonucleotide and 3 μg/mL HSV-1 helicase-primase. After incubation for 20 min at 34°, formation of inorganic phosphate from hydrolysis of ATP was monitored spectrophotometrically at 650 nm using acidic ammonium molybdate/malachite green reagent, P. A. Lanzetta et al., Anal. Biochem. 1979, 100, 95. DNA-dependent ATPase activity was calculated from the net absorbance change in the presence and absence of inhibition.

Setting [3] is: Human alphaherpesvirus 1, BHK-21, Group 1 Table 1 entries.

T1 sequence (P10192 whole entry): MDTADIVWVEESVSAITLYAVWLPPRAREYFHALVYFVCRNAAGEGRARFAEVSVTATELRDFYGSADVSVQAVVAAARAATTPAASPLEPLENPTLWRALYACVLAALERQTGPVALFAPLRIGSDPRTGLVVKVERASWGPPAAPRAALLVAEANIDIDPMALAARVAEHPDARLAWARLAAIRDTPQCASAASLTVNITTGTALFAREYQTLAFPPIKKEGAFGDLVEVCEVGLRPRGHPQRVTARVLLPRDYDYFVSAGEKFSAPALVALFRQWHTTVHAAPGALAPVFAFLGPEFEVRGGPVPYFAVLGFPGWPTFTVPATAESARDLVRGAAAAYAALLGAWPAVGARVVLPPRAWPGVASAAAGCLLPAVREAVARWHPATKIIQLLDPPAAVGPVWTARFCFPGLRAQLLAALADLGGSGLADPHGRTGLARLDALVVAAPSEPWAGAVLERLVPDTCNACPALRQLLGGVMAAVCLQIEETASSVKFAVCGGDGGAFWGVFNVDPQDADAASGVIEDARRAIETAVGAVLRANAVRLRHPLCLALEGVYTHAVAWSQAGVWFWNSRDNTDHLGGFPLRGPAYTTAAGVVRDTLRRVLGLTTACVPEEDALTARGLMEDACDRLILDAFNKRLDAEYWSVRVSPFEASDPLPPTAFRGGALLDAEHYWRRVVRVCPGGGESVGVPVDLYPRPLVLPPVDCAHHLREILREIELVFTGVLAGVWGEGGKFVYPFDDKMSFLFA
T1 sequence (P10236 whole entry): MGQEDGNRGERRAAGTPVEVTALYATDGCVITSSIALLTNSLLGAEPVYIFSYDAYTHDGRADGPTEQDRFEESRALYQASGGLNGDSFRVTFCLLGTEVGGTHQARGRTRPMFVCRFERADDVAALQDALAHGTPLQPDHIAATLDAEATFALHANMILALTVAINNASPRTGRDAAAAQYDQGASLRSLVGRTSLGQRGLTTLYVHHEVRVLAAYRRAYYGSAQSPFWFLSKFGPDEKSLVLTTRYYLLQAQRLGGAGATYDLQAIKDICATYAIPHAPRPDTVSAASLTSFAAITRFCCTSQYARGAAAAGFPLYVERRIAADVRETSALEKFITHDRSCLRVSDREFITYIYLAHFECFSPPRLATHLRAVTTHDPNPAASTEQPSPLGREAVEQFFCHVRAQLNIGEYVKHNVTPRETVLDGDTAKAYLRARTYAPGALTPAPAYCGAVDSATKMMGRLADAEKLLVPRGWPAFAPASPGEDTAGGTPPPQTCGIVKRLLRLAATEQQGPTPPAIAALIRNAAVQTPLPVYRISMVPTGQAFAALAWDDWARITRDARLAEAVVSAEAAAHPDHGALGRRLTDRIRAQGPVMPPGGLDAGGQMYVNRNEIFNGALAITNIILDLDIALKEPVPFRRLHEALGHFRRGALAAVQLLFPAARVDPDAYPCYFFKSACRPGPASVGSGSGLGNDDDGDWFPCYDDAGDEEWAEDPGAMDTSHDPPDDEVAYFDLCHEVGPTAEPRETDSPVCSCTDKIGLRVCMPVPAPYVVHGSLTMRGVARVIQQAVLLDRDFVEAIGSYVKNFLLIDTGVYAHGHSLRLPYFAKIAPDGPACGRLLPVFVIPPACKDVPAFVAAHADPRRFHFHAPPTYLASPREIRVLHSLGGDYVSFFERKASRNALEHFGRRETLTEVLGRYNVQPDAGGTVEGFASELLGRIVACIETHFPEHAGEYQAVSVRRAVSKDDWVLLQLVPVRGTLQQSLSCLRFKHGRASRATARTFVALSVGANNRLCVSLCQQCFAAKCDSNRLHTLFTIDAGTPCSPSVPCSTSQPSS
T1 sequence (P10189 whole entry): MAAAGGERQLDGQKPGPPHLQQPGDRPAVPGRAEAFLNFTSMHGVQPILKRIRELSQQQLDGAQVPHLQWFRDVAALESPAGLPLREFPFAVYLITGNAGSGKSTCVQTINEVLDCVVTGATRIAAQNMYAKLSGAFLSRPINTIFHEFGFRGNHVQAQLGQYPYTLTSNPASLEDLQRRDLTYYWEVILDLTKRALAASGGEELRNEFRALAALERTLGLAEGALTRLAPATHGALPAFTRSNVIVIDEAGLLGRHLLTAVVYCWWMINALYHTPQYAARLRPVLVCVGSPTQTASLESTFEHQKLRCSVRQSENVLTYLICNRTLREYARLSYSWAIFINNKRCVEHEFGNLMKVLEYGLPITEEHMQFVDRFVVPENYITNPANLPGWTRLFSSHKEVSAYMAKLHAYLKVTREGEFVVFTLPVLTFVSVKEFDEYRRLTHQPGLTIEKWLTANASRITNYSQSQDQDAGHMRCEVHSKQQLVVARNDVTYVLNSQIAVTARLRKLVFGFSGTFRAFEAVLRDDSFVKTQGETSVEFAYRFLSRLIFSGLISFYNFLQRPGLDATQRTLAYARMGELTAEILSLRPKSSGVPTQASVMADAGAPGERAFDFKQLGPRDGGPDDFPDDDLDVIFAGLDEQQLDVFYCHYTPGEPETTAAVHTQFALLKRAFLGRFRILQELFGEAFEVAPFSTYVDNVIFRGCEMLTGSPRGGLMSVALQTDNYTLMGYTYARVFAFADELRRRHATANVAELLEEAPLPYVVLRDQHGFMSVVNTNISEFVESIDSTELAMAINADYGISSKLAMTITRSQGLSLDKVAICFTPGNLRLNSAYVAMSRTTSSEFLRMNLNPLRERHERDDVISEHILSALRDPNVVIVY

For `Nc1nc(-c2ccc(NC(=O)CNCc3ccc(Cl)cc3)cc2)cs1` [Example 5], the 50% effective concentration (EC50) in assay [1] (setting [3]) is 42 µM. The same molecule gave an IC50 in assay [2] (Group 1 Table 1 entries) of 5.4 µM.
For `Cc1ccc(CNCC(=O)Nc2ccc(-c3csc(N)n3)cc2)cc1` [Example 6] the same measures were 18 µM and 19 µM.
As for `CNc1nc(-c2ccc(NC(=O)CNCc3ccccc3)cc2)cs1` [Example 7], the concentration giving a half-maximal response (EC50) in assay [1] (Human alphaherpesvirus 1, BHK-21, Group 1 Table 3 entries) was determined as 4.1 µM.
On to `COc1ccc(CNCC(=O)Nc2ccc(-c3csc(N)n3)cc2)cc1` [Example 7], for which, in assay [1] (setting [3]), the response was half-maximal at 7 µM (EC50). The molecule further registered an IC50 in assay [2] (Group 1 Table 1 entries) of 48 µM.
For `Nc1nc(-c2ccc(NC(=O)CNCc3cccc(F)c3)cc2)cs1` [Example 9], the half-inhibitory concentration (IC50) in assay [2] (Group 1 Table 1 entries) is ~5 µM.
Turning to `Nc1nc(-c2ccc(NC(=O)CN(Cc3ccccc3F)Cc3ccccc3F)cc2)cs1` [Example 17], in assay [1] (setting [3]), the concentration for a half-maximal effect (EC50) was 4 µM. For the same molecule, inhibition in assay [2] (Group 1 Table 1 entries) was half-maximal at 1.8 µM (IC50).
As to `Nc1nc(-c2ccc(NC(=O)CN(Cc3cccc(F)c3)Cc3cccc(F)c3)cc2)cs1` [Example 18], the response in assay [1] (setting [3]) was half-maximal at 0.1 µM (EC50). Also, the IC50 in assay [2] (Group 1 Table 1 entries) turned out to be 0.4 µM.
Regarding `Nc1nc(-c2ccc(NC(=O)[C@H](Cc3ccccc3)NC(=O)OCc3ccccc3)cc2)cs1` [Example 23], the EC50 in assay [1] (Human alphaherpesvirus 1, BHK-21, Group 1 Table 5 entries) came to 0.094 µM. In assay [2] (Group 1 Table 5 entries), the IC50 turned out to be 0.6 µM.
Molecule `Nc1nc(-c2ccc(NC(=O)CN(Cc3ccc(Cl)cc3)C(=O)c3ccncc3)cc2)cs1` [Example 55] displayed an EC50 in assay [1] (setting [3]) of 0.095 µM.
On the same count and under the same terms, under `Nc1nc(-c2ccc(NC(=O)CN(CC3CCCCC3)C(=O)c3ccncc3)cc2)cs1` [Example 57] stands 0.95 µM.
The molecule `Nc1nc(-c2ccc(NC(=O)CN(Cc3ccc(F)cc3)C(=O)c3ccccc3)cc2)cs1` [Example 59] registered a concentration giving a half-maximal response (EC50) in assay [1] (setting [3]) of 0.015 µM. This molecule also gave an IC50 in assay [2] (Group 1 Table 1 entries) of 0.3 µM.
Regarding `CC(C)(C)OC(=O)N1CCC(C(=O)N(CC(=O)Nc2ccc(-c3csc(N)n3)cc2)CC2CCCCC2)CC1` [Example 61], the concentration for a half-maximal effect (EC50) in assay [1] (setting [3]) came to 1.6 µM.
For the molecule `[N-]=[N+]=Nc1ccc(C(=O)N(CC(=O)Nc2ccc(-c3csc(N)n3)cc2)Cc2ccc(Cl)cc2)cc1` [Example 65], the IC50 in assay [2] (Group 1 Table 1 entries) stood at 0.84 µM.
Consider `Nc1nc(-c2ccc(NC(=O)CN(CCc3ccccc3)C(=O)C3CCCCC3)cc2)cs1` [Example 68], for which the half-maximal effective concentration (EC50) in assay [1] (setting [3]) was 0.05 µM.
Still for that read-out and setting: under `Nc1nc(-c2ccc(NC(=O)CN(Cc3ccc(Cl)cc3)C(=O)CC3CCCCC3)cc2)cs1` [Example 69] stands 0.18 µM; under `Nc1nc(-c2ccc(NC(=O)CN(CC3CCCCC3)C(=O)CC3CCCC3)cc2)cs1` [Example 75], 0.24 µM; under `[N-]=[N+]=Nc1ccc(C(=O)N(CC(=O)Nc2ccc(-c3csc(N)n3)cc2)Cc2ccncc2)cc1` [Example 78], 0.18 µM.
The same measure, in the same setting: the same measure for `CC(C)CN(CC(=O)Nc1ccc(-c2csc(N)n2)cc1)C(=O)C1CCCCC1` [Example 81]: 0.18 µM; for `Nc1nc(-c2ccc(NC(=O)CN(Cc3ccc(F)cc3)C(=O)C3CCCCC3)cc2)cs1` [Example 83]: 0.006 µM; for `CC(C)COC(=O)N(CC(=O)Nc1ccc(-c2csc(N)n2)cc1)Cc1ccccc1` [Example 86]: 0.088 µM.
`CC(C)(C)NC(=O)N(CC(=O)Nc1ccc(-c2csc(N)n2)cc1)Cc1ccccc1` [Example 92]: the EC50 in assay [1] (setting [3]) came to 0.034 µM.
On the same count and under the same terms, the same measure for `CN(C(=O)N(CC(=O)Nc1ccc(-c2csc(N)n2)cc1)Cc1ccccc1)C(C)(C)C` [Example 94]: 0.065 µM.
`Nc1nc(-c2ccc(NC(=O)CN(Cc3ccccc3)C(=O)N3CCOCC3)cc2)cs1` [Example 95] yielded an EC50 in assay [1] (setting [3]) of 0.037 µM.
The same measure, in the same setting: the same measure for `Nc1nc(-c2ccc(NC(=O)CN(Cc3ccccc3)S(=O)(=O)N3CCOCC3)cc2)cs1` [Example 96]: 0.12 µM; for `CC(C)(C)OC(=O)N(CC(=O)Nc1ccc(-c2csc(N)n2)cc1)CC1CCCCC1` [Example 100]: 0.85 µM.
The same measure, in the same setting: under `Cc1ccccc1CN(CC(=O)Nc1ccc(-c2csc(N)n2)cc1)C(=O)c1ccncc1` [Example 102] stands 0.011 µM; under `C[C@@H](c1ccccc1)N(CC(=O)Nc1ccc(-c2csc(N)n2)cc1)C(=O)NC(C)(C)C` [Example 105], 0.29 µM.
